These results are taken from PubChem BioAssay (NCI).

Structures are written as SMILES.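 Five concentrations, 48 hours, 96-well plates. Abbreviation: GI50, concentration required for 50% inhibition of growth. Definition used: TGI = concentration required for complete inhibition of growth.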 Some results are limits rather than exact numbers.

The test system of the first test is P388/ADR leukemia. In words: NCI tumour cell line growth inhibition, 48 h.
The compound `N#C[C@H](OC1OC(COC2OC(CO)C(O)C(O)C2O)C(O)C(O)C1O)c1ccccc1` (stereo partly drawn) gave a TGI above 158 µM.
The compound `CCN(CC)c1ccc2cc(C(=O)Nc3ccc4[nH]c(C(=O)N5C[C@@H](CCl)c6c5cc(OC(=O)Nc5ccccc5)c5[nH]cc(C)c65)cc4c3)oc2c1` yielded a TGI above 1000 µM.
With `CC(=O)Oc1cc2c(cc1OC(C)=O)OCC(c1ccccc1)C2` (stereo not drawn), the TGI was 11.7 µM.
In turn, `O=C(CCl)NNC1=Nc2ccc(Cl)cc2SC1` showed a TGI of 3.52 µM.
The same measure, in the same setting: with `CCCNC(=O)C(C)C1CCC2(C)C=CC(=O)C(C)=C2C1O` (stereo not drawn) the figure was above 100 µM.

For another test, the system named is DU-145 prostate. Briefly: NCI tumour cell line growth inhibition, 48 h.
In the case of `Cn1c(=O)c2[nH]c(CCNC(=O)c3ccccc3)nc2n(C)c1=O`, the TGI is above 100 µM.
In turn, `Cc1cc(S(=O)(=O)Nc2nc3ccccc3nc2-c2cccc([N+](=O)[O-])c2)c(S)cc1Cl` had a TGI of 36.8 µM.
The same measure, in the same setting: with `O=c1ssc(=Nc2ccccc2)n1-c1ccccc1` the figure was 39.9 µM.
`NCCSS(=O)(=O)CCN` showed a TGI above 100 µM.
With `OCCNCCN1CCN(CCCN2c3ccccc3Sc3ccc(C(F)(F)F)cc32)CC1`, the TGI was above 100 µM.
On the same count and under the same terms, with `CCCc1c(-c2ccccc2)[nH]c2ccccc2c1=O` the figure was above 100 µM; with `COc1c(Br)cc2c(c1OC)C(Br)CCC(Br)(Br)C2=O` (stereo not drawn), 9.64 µM.
Same read-out and setting: with `O=C1C=CC2(C=C1)O[C@H](Cc1ccccc1)[C@@H](Cc1ccccc1)O2` the figure was 5.89 µM.

A further test relates to HOP-18 NSCLC. In words: NCI tumour cell line growth inhibition, 48 h.
For `N#C[C@H](OC1OC(COC2OC(CO)C(O)C(O)C2O)C(O)C(O)C1O)c1ccccc1` (stereo partly drawn), the TGI was above 250 µM.
In turn, `CC(=O)Oc1cc2c(cc1OC(C)=O)OCC(c1ccccc1)C2` (stereo not drawn) registered a TGI of 63.2 µM.
The same measure, in the same setting: the value for `O=C(O)c1cc2c(ncc3c(=O)n(-c4ccccc4)[nH]c32)s1` was above 100 µM.
`O=C(CCl)NNC1=Nc2ccc(Cl)cc2SC1` came in with a TGI of 3.36 µM.
In the case of `Cc1ccc(C2OC(COCc3ccc(Cl)cc3)C(OCc3ccc(Cl)cc3)C2O)cc1` (stereo not drawn), the TGI was above 100 µM.
Turning to `CCCNC(=O)C(C)C1CCC2(C)C=CC(=O)C(C)=C2C1O` (stereo not drawn), the TGI was above 100 µM.
The same measure, in the same setting: the value for `Nc1ccn(C2C=C(CO)C(O)C2O)c(=O)c1` (stereo not drawn) was above 625 µM; that for `COc1nc(=O)n(COC(CO)CN2C(=O)c3ccccc3C2=O)cc1Cc1cccc(OCc2ccccc2)c1` (stereo not drawn) was 72.5 µM.

Another test deals with SNB-78 CNS. Briefly: NCI tumour cell line growth inhibition, 48 h.
As to `N#C[C@H](OC1OC(COC2OC(CO)C(O)C(O)C2O)C(O)C(O)C1O)c1ccccc1` (stereo partly drawn), the TGI was above 250 µM.
For the compound `CCN(CC)c1ccc2cc(C(=O)Nc3ccc4[nH]c(C(=O)N5C[C@@H](CCl)c6c5cc(OC(=O)Nc5ccccc5)c5[nH]cc(C)c65)cc4c3)oc2c1`, the GI50 was 83.7 µM and the TGI was above 1000 µM.
`CC(=O)Oc1cc2c(cc1OC(C)=O)OCC(c1ccccc1)C2` (stereo not drawn) yielded a TGI of 111 µM.
Same read-out and setting: with `O=C(CCl)NNC1=Nc2ccc(Cl)cc2SC1` the figure was 4.51 µM.
Still for that read-out and setting: with `Cc1ccc(C2OC(COCc3ccc(Cl)cc3)C(OCc3ccc(Cl)cc3)C2O)cc1` (stereo not drawn) the figure was 29.6 µM; with `C[N+](C)(C)CCc1ccccc1`, above 100 µM.
Still for that read-out and setting: with `O=C(Nc1nc2ccc([N+](=O)[O-])cc2s1)C(=O)C(C(=O)c1ccccc1F)C1OC(=O)c2ccccc21` (stereo not drawn) the figure was above 100 µM; with `Nc1ccn(C2C=C(CO)C(O)C2O)c(=O)c1` (stereo not drawn), above 625 µM.
The compound `COc1nc(=O)n(COC(CO)CN2C(=O)c3ccccc3C2=O)cc1Cc1cccc(OCc2ccccc2)c1` (stereo not drawn) gave a TGI above 100 µM.

The test system of another test is MDA-N. In words: NCI tumour cell line growth inhibition, 48 h.
With `Cn1c(=O)c2[nH]c(CCNC(=O)c3ccccc3)nc2n(C)c1=O`, the TGI is above 100 µM.
Same read-out and setting: with `Cc1cc(S(=O)(=O)Nc2nc3ccccc3nc2-c2cccc([N+](=O)[O-])c2)c(S)cc1Cl` the figure was 46.2 µM.
Same read-out and setting: with `O=c1ssc(=Nc2ccccc2)n1-c1ccccc1` the figure was above 100 µM.
Still for that read-out and setting: with `NCCSS(=O)(=O)CCN` the figure was above 100 µM; with `OCCNCCN1CCN(CCCN2c3ccccc3Sc3ccc(C(F)(F)F)cc32)CC1`, 33.7 µM.
`CCCc1c(-c2ccccc2)[nH]c2ccccc2c1=O` gave a TGI above 100 µM.
On to `COc1c(Br)cc2c(c1OC)C(Br)CCC(Br)(Br)C2=O` (stereo not drawn), for which the TGI worked out at 0.684 µM.
Still for that read-out and setting: with `O=C1C=CC2(C=C1)O[C@H](Cc1ccccc1)[C@@H](Cc1ccccc1)O2` the figure was 0.66 µM.

The test system of a further test is BT-549 breast. Briefly: NCI tumour cell line growth inhibition, 48 h.
As for `Cn1c(=O)c2[nH]c(CCNC(=O)c3ccccc3)nc2n(C)c1=O`, the TGI is above 100 µM.
On to `Cc1cc(S(=O)(=O)Nc2nc3ccccc3nc2-c2cccc([N+](=O)[O-])c2)c(S)cc1Cl`, for which the TGI was 72.8 µM.
The same measure, in the same setting: the value for `NCCSS(=O)(=O)CCN` was above 100 µM; that for `OCCNCCN1CCN(CCCN2c3ccccc3Sc3ccc(C(F)(F)F)cc32)CC1` was above 100 µM; that for `CCCc1c(-c2ccccc2)[nH]c2ccccc2c1=O` was above 100 µM.
In turn, `COc1c(Br)cc2c(c1OC)C(Br)CCC(Br)(Br)C2=O` (stereo not drawn) gave a TGI of 1.37 µM.
Still for that read-out and setting: the value for `O=C1C=CC2(C=C1)O[C@H](Cc1ccccc1)[C@@H](Cc1ccccc1)O2` was 0.563 µM.

Another test relates to PC-3 prostate. In words: NCI tumour cell line growth inhibition, 48 h.
With `Cn1c(=O)c2[nH]c(CCNC(=O)c3ccccc3)nc2n(C)c1=O`, the TGI was above 100 µM.
`Cc1cc(S(=O)(=O)Nc2nc3ccccc3nc2-c2cccc([N+](=O)[O-])c2)c(S)cc1Cl` showed a TGI of 50.8 µM.
Regarding `O=c1ssc(=Nc2ccccc2)n1-c1ccccc1`, the TGI is 38.5 µM.
Still for that read-out and setting: with `NCCSS(=O)(=O)CCN` the figure was above 100 µM.
`OCCNCCN1CCN(CCCN2c3ccccc3Sc3ccc(C(F)(F)F)cc32)CC1` registered a TGI of 62.1 µM.
On the same count and under the same terms, with `CCCc1c(-c2ccccc2)[nH]c2ccccc2c1=O` the figure was above 100 µM; with `COc1c(Br)cc2c(c1OC)C(Br)CCC(Br)(Br)C2=O` (stereo not drawn), 4.03 µM.
